Data: US5710129A, “Inhibitors of SH2-mediated processes” (Ariad Pharmaceuticals, Inc., priority 1995, dated 1998)
Where “and” joins values, the source holds several entries; their conditions need not be identical. Equal entries are not always repeated. Square brackets hold non-standard residues; d marks the D form. Peptide text beside a SMILES is read from it. * marks the point of attachment. Tyr(3,5-(NO2)2) = N[C@@H](Cc1cc([N+](=O)[O-])c(O)c([N+](=O)[O-])c1)C(=O)O; Acetyl(9-fluorenyl) = O=C(CC1c2ccccc2-c2ccccc21)*; Propanoyl(3,3-Ph2) = O=C(CC(c1ccccc1)c1ccccc1)*; Acetyl(1-naphthyl) = O=C(Cc1cccc2ccccc12)*; Acetyl(2-naphthyl) = O=C(Cc1ccc2ccccc2c1)*; 1Nal = N[C@@H](Cc1cccc2ccccc12)C(=O)O; 2Nal = N[C@@H](Cc1ccc2ccccc2c1)C(=O)O; Fmoc = O=C(OCC1c2ccccc2-c2ccccc21)*; Butanoyl(4-Ph) = O=C(CCCc1ccccc1)*; 2Naphthoyl = O=C(c1ccc2ccccc2c1)*; Hydrocinnamoyl = O=C(CCc1ccccc1)*; X1 = CC(CC(=O)*)c1ccccc1; PhAc = O=C(Cc1ccccc1)*

Columns and labels:
pp72^syk (1-265) = target: T1, pp72^syk (1-265) (Homo sapiens, UniProt P43405); assay: Tandem Syk competitive binding assay, surface plasmon resonance (BIAcore); details: for N,CSyk 1%/Min / IC50: 20 nM protein, γ-chain ITAM of human FcεRI as ligand; for IC50: read-out: N,CSyk IC-50
T1 construct: Assays were run in HBS using 20 nM pp72^syk (1-265)
Method: (§1) Binding was measured by competition using surface plasmon resonance (Malmqvist, M. (1993) Current Opinions in Immunology 5, 282-286) as implemented in the BIAcore Biosensor (Pharmacia Biosensor, Piscataway, N.J.). […] Results were compared to binding measured in the absence of competitor and expressed as percent inhibition. IC50values reflect the concentration of inhibitor required to reduce binding by 50%. Specifics of individual assays are described below. All asssays were run in HEPES Buffered Saline (HBS) composed of 10 mM HEPES (pH 7.4)/150 mM NaCl/3.4 mM EDTA/0.05% Surfactant P20at 25° C. and a flow rate of 5 uL min^-1.
A pp72^syk peptide ligand corresponding to the γ-chain ITAM of human Fcε RI [DGVY(PO4)TGLSTRNQETY(PO4)ETLK] [SEQ ID NO:18] was synthesized as part of a larger peptide [Ac-CGGDGVY(PO4)TGLSTRNQETY-(PO4)ETLK-NH2] [SEQ ID NO:19] and used to generate a Syk-sensitive biosensor surface. Specifically, a Biosensor Chip CM5was activated with 200 mM ethyl-3-(3-dimethylaminopropyl)-carbodiimide hydrochloride (EDC)/50 mM N-hydroxysuccinimide (NHS) to generate a surface reactive to primary amines; treated with ethylenediamine to generate a surface rich in primary amines; activated with m-maleimidobenzoyl-N-hydroxysuccinimide ester (sulfo-MBS; 50 mM in 25 mM NaHCO3) to generate a surface reactive to free thiols; and the ITAM peptide immobilized through the N-terminal cysteine. Unreacted sites were blocked with β-mercaptoethanol and the chip cleaned of noncovalently bound peptide using 6M guanidine hydrochloride. Assays were run in HBS using 20 nM pp72^syk (1-265)±test inhibitor.

pp72^syk (163-265) = target: T2, pp72^syk (163-265) (Homo sapiens, UniProt P43405); assay: C-Syk competitive binding assay, surface plasmon resonance (BIAcore); details: 270 nM protein; hemiphosphorylated γ-chain ITAM of human FcεRI as ligand; read-out: CSyk IC-50
T2 construct: Assays were run in HBS using 270 nM pp72^syk (163-265)
Method: as §1
A pp72^syk peptide ligand corresponding to a hemiphosphorylated γ-chain ITAM of human Fcε RI [DGVY(PO4)TGLSTRNQETYETLK] was synthesized as part of a larger peptide [Ac-CGGDGVY(PO4)TGLSTRNQETYETLK-NH2 ] and used to generate a C-Syk-sensitive biosensor surface as described above for tandem syk. Assays were run in HBS using 270 nM pp72^syk (163-265)±test inhibitor.

pp70^ZAP (1-259) = target: T3, pp70^ZAP (1-259) (Homo sapiens, UniProt P43403); assay: Tandem ZAP competitive binding assay, surface plasmon resonance (BIAcore); details: for IC50: 10 nM protein, ζ-chain ITAM-1 of human T-cell receptor as ligand, read-out: N,CZap IC-50
T3 sequence (P43403 1-259): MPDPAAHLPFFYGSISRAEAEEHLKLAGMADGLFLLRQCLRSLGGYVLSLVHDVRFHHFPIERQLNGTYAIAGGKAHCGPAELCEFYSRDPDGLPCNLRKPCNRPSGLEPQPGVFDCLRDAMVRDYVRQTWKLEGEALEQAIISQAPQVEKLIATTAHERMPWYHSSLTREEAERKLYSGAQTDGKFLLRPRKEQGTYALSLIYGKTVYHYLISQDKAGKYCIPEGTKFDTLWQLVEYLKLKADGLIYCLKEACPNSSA
Method: as §1
A pp70^ZAP peptide ligand corresponding to the .zeta.-chain ITAM-1 of the human T-cell receptor [NQLY(PO4)NELNIGRREEY(PO4)DVLD] [SEQ ID NO:20] was synthesized as a part of a larger peptide [Ac-KGGNQLY(PO4)NELNIGRREEY-(PO4)DVLD-NH2 ] [SEQ ID NO:21] and used to generate a ZAP-sensitive biosensor surface. Specifically, a Biosensor Chip CM5was activated with 200 mM EDC/50 mM NHS to generate a surface reactive to primary amines and the ITAM peptide immobilized through the N-terminal lysine. Unreacted sites were blocked with ethanolamine (1M in water) and the chip cleaned of non-covalently bound peptide using 6M guanidine hydrochloride. Assays were run in HBS using 10 nM pp70^ZAP (1-259)±test inhibitor. (The designation "b22" indicates use of a corresponding γ-chain ITAM for the .zeta.-chain ITAM.)

pp60^src (144-251) = target: T4, pp60^src (144-251) (Homo sapiens, UniProt P12931); assay: Src competitive binding assay, surface plasmon resonance (BIAcore); details: for IC50: 270 nM protein, hamster Middle-T antigen phosphopeptide as ligand, read-out: Src IC-50
T4 construct: Assays were run in HBS using 270 nM pp60^src (144-251)
Method: as §1
A p60^src peptide ligand corresponding to the hamster Middle-T antigen [QY(PO4)EEIPI] [SEQ ID NO:22] was synthesized as a part of a larger peptide [Ac-KGGQY(PO4)EEIPI-NH2 ] [SEQ ID NO:23] and used to generate a src-sensitive biosensor surface as described above for tandem ZAP. Assays were run in HBS using 270 nM pp60^src (144-251)±test inhibitor.

T4 sequence (P12931 144-251): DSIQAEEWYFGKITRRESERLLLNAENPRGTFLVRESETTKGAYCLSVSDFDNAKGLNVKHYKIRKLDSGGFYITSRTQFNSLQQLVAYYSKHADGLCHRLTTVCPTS

SMILES	IC50 (pp72^syk (1-265))	IC50 (pp72^syk (163-265)) [µM]	IC50 (pp60^src (144-251)) [µM]	IC50 (pp70^ZAP (1-259)) [µM]	other results
CC(C)C[C@H](NC(=O)[C@@H](NC(=O)[C@H](CCC(=O)O)NC(=O)[C@H](Cc1cc([N+](=O)[O-])c(O)c([N+](=O)[O-])c1)NC(=O)c1ccc2ccccc2c1)[C@@H](C)O)C(N)=O (2Naphthoyl-[Tyr(3,5-(NO2)2)]ETL-NH2)	380 µM	35	> 1000	–	N,CSyk 1%/Min (pp72^syk (1-265)): 67 µM; N,CZap inhibition (pp70^ZAP (1-259); @ 100 (μM)): ni
CC(=O)N[C@@H](Cc1ccccc1)C(=O)N[C@@H](Cc1cc([N+](=O)[O-])c(O)c([N+](=O)[O-])c1)C(=O)N[C@@H](CCC(=O)O)C(=O)N[C@H](C(=O)N[C@@H](CC(C)C)C(N)=O)[C@@H](C)O (Ac-F[Tyr(3,5-(NO2)2)]ETL-NH2)	> 100 µM	200	–	> 1000	–
CC(=O)N[C@@H](Cc1cccc2ccccc12)C(=O)N[C@@H](Cc1cc([N+](=O)[O-])c(O)c([N+](=O)[O-])c1)C(=O)N[C@@H](CCC(=O)O)C(=O)N[C@H](C(=O)N[C@@H](CC(C)C)C(N)=O)[C@@H](C)O (Ac-[1Nal][Tyr(3,5-(NO2)2)]ETL-NH2)	800 µM	200	> 500	> 100	–
CC(=O)N[C@@H](Cc1ccc2ccccc2c1)C(=O)N[C@@H](Cc1cc([N+](=O)[O-])c(O)c([N+](=O)[O-])c1)C(=O)N[C@@H](CCC(=O)O)C(=O)N[C@H](C(=O)N[C@@H](CC(C)C)C(N)=O)[C@@H](C)O (Ac-[2Nal][Tyr(3,5-(NO2)2)]ETL-NH2)	> 100 µM	> 500	–	> 500	–
CC(=O)N[C@H](Cc1ccccc1)C(=O)N[C@@H](Cc1cc([N+](=O)[O-])c(O)c([N+](=O)[O-])c1)C(=O)N[C@@H](CCC(=O)O)C(=O)N[C@H](C(=O)N[C@@H](CC(C)C)C(N)=O)[C@@H](C)O (Ac-[dF][Tyr(3,5-(NO2)2)]ETL-NH2)	–	50	500	> 100	–
CC(C)C[C@H](NC(=O)[C@@H](NC(=O)[C@H](CCC(=O)O)NC(=O)[C@H](Cc1cc([N+](=O)[O-])c(O)c([N+](=O)[O-])c1)NC(=O)CCc1ccccc1)[C@@H](C)O)C(N)=O (Hydrocinnamoyl-[Tyr(3,5-(NO2)2)]ETL-NH2)	460 µM	11	410	> 100	–
CC(C)C[C@H](NC(=O)[C@@H](NC(=O)[C@H](CCC(=O)O)NC(=O)[C@H](Cc1cc([N+](=O)[O-])c(O)c([N+](=O)[O-])c1)NC(=O)Cc1ccccc1)[C@@H](C)O)C(N)=O (PhAc-[Tyr(3,5-(NO2)2)]ETL-NH2)	> 1000 µM	70	> 1000	> 1000	–
CC(C)C[C@H](NC(=O)[C@@H](NC(=O)[C@H](CCC(=O)O)NC(=O)[C@H](Cc1cc([N+](=O)[O-])c(O)c([N+](=O)[O-])c1)NC(=O)CC(C)c1ccccc1)[C@@H](C)O)C(N)=O (stereo partly drawn) (X1-[Tyr(3,5-(NO2)2)]ETL-NH2)	–	–	–	–	N,CSyk 1%/Min (pp72^syk (1-265)): 14 µM
CC(C)C[C@H](NC(=O)[C@@H](NC(=O)[C@H](CCC(=O)O)NC(=O)[C@H](Cc1cc([N+](=O)[O-])c(O)c([N+](=O)[O-])c1)NC(=O)Cc1cccc2ccccc12)[C@@H](C)O)C(N)=O ({Acetyl(1-naphthyl)}-[Tyr(3,5-(NO2)2)]ETL-NH2)	100 µM	24	> 1000	> 100	–
CC(C)C[C@H](NC(=O)[C@@H](NC(=O)[C@H](CCC(=O)O)NC(=O)[C@H](Cc1cc([N+](=O)[O-])c(O)c([N+](=O)[O-])c1)NC(=O)Cc1ccc2ccccc2c1)[C@@H](C)O)C(N)=O ({Acetyl(2-naphthyl)}-[Tyr(3,5-(NO2)2)]ETL-NH2)	–	20	500	> 100	N,CSyk percent inhibition (pp72^syk (1-265); @ 50 (μM)): 30%
CC(C)C[C@H](NC(=O)[C@@H](NC(=O)[C@H](CCC(=O)O)NC(=O)[C@H](Cc1cc([N+](=O)[O-])c(O)c([N+](=O)[O-])c1)NC(=O)CC1c2ccccc2-c2ccccc21)[C@@H](C)O)C(N)=O ({Acetyl(9-fluorenyl)}-[Tyr(3,5-(NO2)2)]ETL-NH2)	50 µM	26	710	> 100	–
CC(C)C[C@H](NC(=O)[C@@H](NC(=O)[C@H](CCC(=O)O)NC(=O)[C@H](Cc1cc([N+](=O)[O-])c(O)c([N+](=O)[O-])c1)NC(=O)CCCc1ccccc1)[C@@H](C)O)C(N)=O ({Butanoyl(4-Ph)}-[Tyr(3,5-(NO2)2)]ETL-NH2; N-terminus assumed)	–	–	–	–	N,CSyk 1%/Min (pp72^syk (1-265)): 48 µM
CC(C)C[C@H](NC(=O)[C@@H](NC(=O)[C@H](CCC(=O)O)NC(=O)[C@H](Cc1cc([N+](=O)[O-])c(O)c([N+](=O)[O-])c1)NC(=O)CC(c1ccccc1)c1ccccc1)[C@@H](C)O)C(N)=O ({Propanoyl(3,3-Ph2)}-[Tyr(3,5-(NO2)2)]ETL-NH2)	100 µM	15	> 1000	–	N,CZap inhibition (pp70^ZAP (1-259); @ 1000 (μM)): ni
CC(C)C[C@H](NC(=O)[C@@H](NC(=O)[C@H](CC(=O)O)NC(=O)[C@H](Cc1cc([N+](=O)[O-])c(O)c([N+](=O)[O-])c1)NC(=O)OCC1c2ccccc2-c2ccccc21)C(C)C)C(N)=O [DVLNH2] (Fmoc-[Tyr(3,5-(NO2)2)]DVL-NH2)	24 µM and 30 µM	–	–	> 100	Src percent inhibition (pp60^src (144-251); @ 100 (μM)): 25%
CC(C)C[C@H](NC(=O)[C@H](CCC(=O)O)NC(=O)[C@H](CC(N)=O)NC(=O)[C@H](Cc1cc([N+](=O)[O-])c(O)c([N+](=O)[O-])c1)NC(=O)OCC1c2ccccc2-c2ccccc21)C(N)=O [NELNH2] (Fmoc-[Tyr(3,5-(NO2)2)]NEL-NH2)	–	–	–	–	N,CSyk percent inhibition (pp72^syk (1-265); @ 50 (μM)): 15%; N,CZap percent inhibition (pp70^ZAP (1-259); @ 50 (μM)): 10%; Src percent inhibition (pp60^src (144-251); @ 50 (μM)): 5%
CC(C)C[C@H](NC(=O)CNC(=O)[C@@H](NC(=O)[C@H](Cc1cc([N+](=O)[O-])c(O)c([N+](=O)[O-])c1)NC(=O)OCC1c2ccccc2-c2ccccc21)[C@@H](C)O)C(N)=O [TGLNH2] (Fmoc-[Tyr(3,5-(NO2)2)]TGL-NH2)	–	–	–	–	N,CSyk percent inhibition (pp72^syk (1-265); @ 23 (μM)): 35%
